The results in this text go back to ChEMBL document CHEMBL1201862, “PubChem BioAssay data set” (2004).

What all share (assay): DTP human tumour cell line panel, 48 h
Test [1] concerns HT-29.
Test [2] concerns NCI-H460.
The test system of test [3] is COLO 205.
Test [4] concerns EKVX.
In test [5] the test system is MOLT-4.
The test system of test [6] is NCI/ADR-RES.
Test [7] has as its system SR.
The subject of test [8] is BT-549.
Test [9] concerns MDA-MB-231.
Test [10] has as its system DU-145.
For test [11], the system named is SN12C.
For test [12], the system named is ACHN.
Test [13] relates to NCI-H226.
Test [14] relates to MDA-MB-435.
The test system of test [15] is UO-31.
Test [16] deals with SNB-19.
Test [17] has as its system OVCAR-5.
Test [18] concerns OVCAR-3.
In test [19] the test system is SK-OV-3.
Test [20] concerns T47D.

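How tested: cells in 96-well plates exposed to compound for 48 hours at five concentrations. GI50: concentration for 50% inhibition of growth.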 Active and inactive are the calls of the source. Rule as the data show it: active = GI50 up to about 1.1 µM and inactive = higher.

As to `BrC1(c2ccccc2)C[n+]2c(-c3ccccc3)cc(-c3ccccc3)cc2-c2ccccc21` (centres undefined), the GI50 in test [1] is 0.34 µM (active); in [2], 0.444 µM (active); in test [3] it was 0.157 µM (active); in [4], 0.457 µM (active); in test [5], 0.631 µM (active); in test [6], 17.9 µM (inactive). Besides, the GI50 in [7] was 0.611 µM (active); in test [8] it was 0.407 µM (active); in [9] it was 0.336 µM (active); in [10], 0.931 µM (active); in test [11] it was 3.88 µM (inactive); in test [12], 1.42 µM (inactive). Also, the GI50 in test [13] is 0.659 µM (active); in test [14], 0.205 µM (active); in [15], 1.35 µM (inactive); in test [16] it was 0.551 µM (active); in test [17] it was 1.27 µM (inactive); in [18] it was 0.0489 µM (active).

In the case of `C/C(=N\NC(=S)N1CCC(N2CCCCC2)CC1)c1ccccn1`, the GI50 in test [1] was 3.17 µM (inactive); in test [19] it was 4.93 µM (inactive); in test [2], 2.73 µM (inactive); in [3], 2.8 µM (inactive); in test [4], 3.4 µM (inactive); in [5], 0.586 µM (active). Further, the GI50 in test [6] is 2.26 µM (inactive); in test [7] it was 0.519 µM (active); in test [9], 1.9 µM (inactive); in test [10] it was 3.72 µM (inactive); in test [11], 2.7 µM (inactive); in test [12], 2.41 µM (inactive). The GI50 in test [20] is 1.39 µM (inactive); in test [14] it was 2.4 µM (inactive); in test [15] it was 1.9 µM (inactive); in test [16], 3.7 µM (inactive); in test [17] it was 4.11 µM (inactive); in test [18] it was 2.4 µM (inactive).

Turning to `C1CN2CCN3CCN4CCN1[PH]243`, the GI50 in test [1], in test [19], in [2], in test [3], in test [4] and in [5] was > 100 µM (inactive) each time. Besides, the GI50 in [7], in test [11], in [12], in test [13], in test [15] and in test [16] was > 100 µM (inactive) each time. In addition, the GI50 in test [17] and in test [18] was > 100 µM (inactive) throughout.

Turning to `CN(C)CC1CC/C(=C\c2ccc(Cl)c(Cl)c2)C1=O` (centres undefined), the GI50 in test [1] is 25.5 µM (inactive); in test [19], > 100 µM (inactive); in test [2] it was 17.4 µM (inactive); in test [3], 32.9 µM (inactive); in test [4], 39.3 µM (inactive); in test [5], 4.76 µM (inactive). The GI50 is 2.2 µM (inactive) in test [7]; > 38.9 µM (inactive) in test [11]; > 45.1 µM (inactive) in test [12]; > 100 µM (inactive) in test [13]; > 40.6 µM (inactive) in test [15]; 37.3 µM (inactive) in test [16]. Besides, the GI50 in test [17] is > 55.2 µM (inactive); in test [18], 28.3 µM (inactive).

As to `CCOC(=O)COS(=O)(=O)C(F)(F)F`, the GI50 in test [1] was > 100 µM (inactive); in test [19], > 100 µM (inactive); in test [2], 41.9 µM (inactive); in [3], 38 µM (inactive); in test [4] it was > 100 µM (inactive); in test [5], > 100 µM (inactive). Also, the GI50 in test [7] was 24.7 µM (inactive); in [11] it was > 100 µM (inactive); in test [12] it was > 100 µM (inactive); in test [13] it was > 100 µM (inactive); in [15] it was > 100 µM (inactive); in test [16], > 100 µM (inactive). Besides, the GI50 in test [17] and in test [18] was > 100 µM (inactive) each time.

As to `Cn1c2c(c3ccccc31)C1CCCCC1C1C(=O)NC(=O)C21` (centres undefined), the GI50 in test [1] is 33.1 µM (inactive); in [19], > 100 µM (inactive); in test [2], 34.8 µM (inactive); in test [3], 39.9 µM (inactive); in test [4], 32.8 µM (inactive); in test [5], 21.8 µM (inactive). Also, the GI50 in test [7] is 32.1 µM (inactive); in test [11], 33.2 µM (inactive); in test [12] it was 35.2 µM (inactive); in test [13] it was 21.6 µM (inactive); in [15], 28.6 µM (inactive); in test [16], > 100 µM (inactive). In addition, the GI50 was > 100 µM (inactive) in test [17] and 17 µM (inactive) in test [18].

For `O=c1c2cc([N+](=O)[O-])ccc2n2n1CCCC2`, the GI50 in [1], in [19], in test [2], in [3], in [4] and in test [5] was > 100 µM (inactive) each time. For the same molecule, the GI50 in test [6], in [7], in test [9], in test [10], in test [11] and in test [12] was > 100 µM (inactive) each time. In addition, the GI50 in [20] was > 100 µM (inactive); in test [13], > 100 µM (inactive); in test [14], > 100 µM (inactive); in [15] it was 71.3 µM (inactive); in test [16] it was > 100 µM (inactive); in test [17], > 100 µM (inactive). Besides, in [18], the GI50 is > 100 µM (inactive).

Regarding `CN(C)C1(C(=O)O)CC1`, the GI50 in [1], in test [2], in test [4], in test [5], in test [6] and in [7] was > 100 µM (inactive) each time. Also, the GI50 in test [10], in test [11], in [12], in [20], in test [13] and in test [14] was > 100 µM (inactive) in each case. Also, the GI50 in test [16], in [17] and in [18] was > 100 µM (inactive) each time.

On to `CC(=O)O[C@H]1CC[C@@]2(C)C(=C[C@H](c3ccc(O)cc3)[C@H]3[C@@H]4CC[C@H](OC(C)=O)[C@@]4(C)CC[C@@H]32)C1`, for which the GI50 in test [1] is 13.6 µM (inactive); in test [19], > 100 µM (inactive); in test [2] it was 20.5 µM (inactive); in [3] it was 19.2 µM (inactive); in test [4], 20.8 µM (inactive); in test [5] it was 18.4 µM (inactive). The GI50 was 13.5 µM (inactive) in test [6]; 14.2 µM (inactive) in test [8]; 17.9 µM (inactive) in test [9]; 20.7 µM (inactive) in test [10]; 23 µM (inactive) in test [11]; 22.6 µM (inactive) in [12]. In addition, the GI50 was 17.4 µM (inactive) in test [13]; 25.2 µM (inactive) in test [14]; 25.2 µM (inactive) in test [15]; 19.9 µM (inactive) in test [16]; 23.7 µM (inactive) in test [17]; 17.3 µM (inactive) in test [18].

Regarding `COC(=O)C1=C(C)NC(=O)N2[C@@H](CCOCc3ccccc3)CC[C@@H]12`, the GI50 in test [1] was > 50 µM (inactive); in [19], > 50 µM (inactive); in [2] it was > 50 µM (inactive); in test [3], > 50 µM (inactive); in [4] it was > 50 µM (inactive); in test [5] it was 47.9 µM (inactive). The GI50 in test [6] was > 50 µM (inactive); in [7] it was > 50 µM (inactive); in test [9] it was > 50 µM (inactive); in test [10] it was > 50 µM (inactive); in [12], > 50 µM (inactive); in test [20], 12.4 µM (inactive). In addition, the GI50 in test [13], in test [14], in [15], in test [16], in [17] and in [18] was > 50 µM (inactive) each time.

Consider `COc1cc2c(NCCN(C)C)nc3c4cc5c(cc4ccc3c2cc1OC)OCO5`, for which the GI50 in test [1] is 3.37 µM (inactive); in test [19] it was 4.78 µM (inactive); in test [2] it was 0.193 µM (active); in [3], 2.81 µM (inactive); in test [4] it was 4.09 µM (inactive); in test [5], 0.242 µM (active). The GI50 is 4.16 µM (inactive) in [6]; 0.115 µM (active) in test [7]; 5.13 µM (inactive) in test [9]; 3.96 µM (inactive) in test [10]; 4.53 µM (inactive) in [11]; 0.745 µM (active) in test [12]. Also, the GI50 in test [20] was 6.15 µM (inactive); in [13] it was 3.7 µM (inactive); in test [14], 3.5 µM (inactive); in test [15], 3.36 µM (inactive); in test [16], 3.56 µM (inactive); in test [17], 3.42 µM (inactive).

As to `O=C1OCCC1(Cc1ccc(Cl)cc1)Cc1ccc(Cl)cc1`, the GI50 in [1], in [19], in test [2], in [3], in test [4] and in [5] was > 100 µM (inactive) in each case. Further, the GI50 is > 100 µM (inactive) in test [7]; > 100 µM (inactive) in test [11]; > 100 µM (inactive) in test [12]; > 100 µM (inactive) in [13]; 54.7 µM (inactive) in test [15]; 30 µM (inactive) in test [16]. The GI50 in test [17] and in test [18] was > 100 µM (inactive) throughout.
